The values below come from US8338472B2, “Hexahydrocyclopentyl[F]indazole carboxamides and derivatives thereof as selective glucocorticoid receptor modulators” (Merck Sharp & Dohme Corp., priority 2008, dated 2012).

What is called Ki is a measure of affinity in units of concentration, obtained from inhibition or displacement.

Like-named read-outs stand apart in the source and are kept apart here.

For experiment [1], the target named is T1, glucocorticoid receptor (GR) (Homo sapiens, UniProt P04150).
T1 sequence (P04150 1-777): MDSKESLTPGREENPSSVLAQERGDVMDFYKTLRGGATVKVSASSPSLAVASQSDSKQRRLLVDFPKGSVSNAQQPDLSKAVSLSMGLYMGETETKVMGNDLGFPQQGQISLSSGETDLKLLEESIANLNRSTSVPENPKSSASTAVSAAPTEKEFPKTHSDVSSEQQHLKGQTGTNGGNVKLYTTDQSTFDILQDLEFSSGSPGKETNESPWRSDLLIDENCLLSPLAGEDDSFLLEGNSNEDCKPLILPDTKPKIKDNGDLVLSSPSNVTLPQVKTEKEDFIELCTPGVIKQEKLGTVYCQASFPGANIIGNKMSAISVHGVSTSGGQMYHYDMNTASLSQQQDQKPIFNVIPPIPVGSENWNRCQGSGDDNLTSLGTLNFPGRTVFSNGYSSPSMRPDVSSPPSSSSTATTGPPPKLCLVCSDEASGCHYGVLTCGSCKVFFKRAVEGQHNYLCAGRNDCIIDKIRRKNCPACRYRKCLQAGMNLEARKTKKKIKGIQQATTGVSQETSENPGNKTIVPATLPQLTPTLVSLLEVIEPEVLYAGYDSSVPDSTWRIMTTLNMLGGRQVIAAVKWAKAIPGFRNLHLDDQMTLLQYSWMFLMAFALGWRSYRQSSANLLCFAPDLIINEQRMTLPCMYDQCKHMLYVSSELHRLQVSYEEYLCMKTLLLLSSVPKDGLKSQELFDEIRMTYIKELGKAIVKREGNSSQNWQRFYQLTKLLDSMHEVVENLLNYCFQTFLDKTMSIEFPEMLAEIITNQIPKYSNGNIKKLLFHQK
Description: Ligand binding assay (GR BIND), 3H-dexamethasone displacement in MDA-MB-453 cell lysate. Conditions: Table 1.

The target in experiment [2] is T2, Glucocorticoid Receptor (Homo sapiens, UniProt P04150).
T2 construct: These cells express large amount of the GR and are very responsive to GC treatment; endogenous in cells; host or cells: A549 cells transiently transfected with the MMTV-LUC reporter
T2 sequence (P04150 1-777): T1 sequence (P04150 1-777)
Description: Trans-Activation Modulation of Glucocorticoid Receptor (GRAMMER), MMTV-LUC reporter gene in A549 cells. Format: cell-based. Conditions: Table 1; for Emax: A549, A549 cells, read-out: Transactivation A549 Cells GRAMMER Emax; for Emax / Transactivation A549 Cells GRAMMER Emax: Emax relative to 300 nM dexamethasone; for EC50: inflection point, read-out: Transactivation A549 Cells GRAMMER IP; for EC50 / Transactivation A549 Cells GRAMMER Emax: A549 cells. An outline of the steps:
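Luciferase from a transiently transfected MMTV-LUC reporter was measured after 24 h compound exposure (≤1% DMSO) in A549 or MDA-MB-453 cells. For antagonism, the decrease of 10 nM dexamethasone-induced signal was calculated. For agonism, Emax was referenced to 300 nM dexamethasone.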
(In a reporter assay the amount or activity of a reporter protein is the signal.)

Experiment [3] has as its target T3, human GR (Homo sapiens, UniProt P04150).
T3 construct: U937 cells contain an endogenous glucocorticoid receptor (GR); endogenous in cells; host or cells: U937 cells stably transfected with the TNF-alpha promoter/beta-lactamase reporter
T3 sequence (P04150 1-777): T1 sequence (P04150 1-777)
The experiment can be described thus: Transrepression Assay (GITAR), TNFα-β-lactamase reporter gene in U937 cells. Format: cell-based. Conditions: for GITAR Greater than by GRAMMER % SEP: GITAR Emax minus GRAMMER Emax; for EC50: inflection point, read-out: Transrepression U937 Cells GITAR IP; for EC50 / Transrepression U937 Cells GITAR Emax: U937 cells. The essentials: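 Repression of PMA (5 ng/ml final)/LPS (100 ng/ml final)-induced TNF-α promoter activity, read as β-lactamase cleavage of CCF2-AM, in stably transfected U937 cells expressing native GR. Compound added 30-45 min before stimulation, overnight (~18 hr) 37° C; normalized to 100 nM dexamethasone (100%).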

Setting [4] is: U-937, U937 cells, activity repressed by 100 nM dexamethasone = 100%, Table 1, read-out: Transrepression U937 Cells GITAR Emax.
[5] abbreviates: U-937, text statement, 100 nM dexamethasone = 100%, read-out: maximal activity in the transrepression assay (GITAR).
Where [6] appears, read: activity repressed by 100 nM dexamethasone = 100%, Table 1.

In turn, `CCN(CC(O)C(F)(F)F)C(=O)[C@H]1CCC2=Cc3c(cnn3-c3ccccc3)C[C@@]21C` (stereo partly drawn) [Compound 76, (4αR,5S)-N-ethyl-4α-methyl-1-phenyl-N-(3,3,3-trifluoro-2-hydroxypropyl)-1,4,4α,5,6,7-hexahydrocyclopenta[f]indazole-5-carboxamide] came in with an inhibition constant (Ki) in experiment [1] (GR BIND Ki) of 4.2 nM. For the same compound, the Emax is 78.2% in experiment [2], 84.3% in experiment [3] (setting [4]) and more than 5% in experiment [3] (setting [5]). The results for the EC50 in experiment [2] and in experiment [3] (Table 1) were 314 nM and 225 nM, respectively. Besides, in experiment [3] (Table 1), the “GITAR Greater than by GRAMMER % SEP” value was 6.1%.

With `C[C@]12Cc3cnn(-c4ccc(F)cc4)c3C=C1CC[C@@H]2C(=O)N(CCO)CCc1ccccc1` [Compound 35, (4αR,5S)-1-(4-fluorophenyl)-N-(2-hydroxyethyl)-4α-methyl-N-(2-phenylethyl)-1,4,4α,5,6,7-hexahydrocyclopenta[f]indazole-5-carboxamide], the inhibition constant Ki in experiment [1] (GR BIND Ki) came out at 14.7 nM. Also, the Emax in experiment [2] was 31.8%; in experiment [3] (setting [4]), 62.6%; in experiment [3] (setting [5]), more than 5%. In addition, the EC50 in experiment [2] is 2650 nM; in experiment [3] (Table 1), 945 nM. For the same compound, in experiment [3] (Table 1), the “GITAR Greater than by GRAMMER % SEP” value is 30.8%.

Regarding `C[C@]12Cc3cnn(-c4ccc(F)cc4)c3C=C1CC[C@@H]2C(=O)N(CCc1ccccc1)Cc1ccccc1` [Compound 49, (4αR,5S)-N-benzyl-1-(4-fluorophenyl)-4α-methyl-N-(2-phenylethyl)-1,4,4,5,6,7-hexahydrocyclopenta[f]indazole-5-carboxamide], affinity in experiment [1] (GR BIND Ki) was put at a Ki of 1.9 nM. Further, the results for the Emax in experiment [2], in experiment [3] (setting [4]) and in experiment [3] (setting [5]) were 1.5%, 11.6% and more than 5%, respectively. In addition, the EC50 in experiment [2] is 260 nM; in experiment [3] (Table 1), 145 nM. Besides, the “GITAR Greater than by GRAMMER % SEP” value in experiment [3] (Table 1) was 10.1%.

`C[C@]12Cc3cnn(-c4ccc(F)cc4)c3C=C1CC[C@@H]2C(=O)N(CCc1ccccc1F)CC(O)C(F)(F)F` (stereo partly drawn) [Compound 93, (4αR,5S)-1-(4-fluorophenyl)-N-[2-(2-fluorophenyl)ethyl]-4α-methyl-N-(3,3,3-trifluoro-2-hydroxypropyl)-1,4,4α,5,6,7-hexahydrocyclopenta[f]indazole-5-carboxamide]: the inhibitory constant (Ki) in experiment [1] (GR BIND Ki) is 1.1 nM. In experiment [2], the “Transactivation A549 Cells GRAMMER Emax” value worked out at 61.7% and the EC50 is 277 nM. In experiment [3] (Table 1), the “GITAR Greater than by GRAMMER % SEP” value worked out at 5.9% and the EC50 is 172 nM. Besides, the “Transrepression U937 Cells GITAR Emax” value in experiment [3] (setting [6]) came to 67.5%.

On to `CC(C)CN(C)C(=O)[C@H]1CCC2=Cc3c(cnn3-c3ccc(F)cc3)C[C@@]21C` [Compound 54, (4αR,5S)-1-(4-fluorophenyl)-N-isobutyl-N,4α-dimethyl-1,4,4α,5,6,7-hexahydrocyclopenta[f]indazole-5-carboxamide], for which affinity in experiment [1] (GR BIND Ki) was put at a Ki of 32.1 nM. The Emax in experiment [2] was 3.1%; in experiment [3] (setting [4]), 40.5%; in experiment [3] (setting [5]), more than 5%. Also, the EC50 in experiment [2] came out at 1250 nM; in experiment [3] (Table 1), 2210 nM. Further, the “GITAR Greater than by GRAMMER % SEP” value in experiment [3] (Table 1) is listed as 37.4%.

With `COc1ccccc1CCN(CC(O)C(F)(F)F)C(=O)[C@H]1CCC2=Cc3c(cnn3-c3ccc(F)cc3)C[C@@]21C` (stereo partly drawn) [Compound 83, (4αR,5S)-1-(4-fluorophenyl)-N-[2-(2-methoxyphenyl)ethyl] -4α-methyl-N-(3,3,3-trifluoro-2-hydroxypropyl)-1,4,4α,5,6,7-hexahydrocyclopenta[f]indazole-5-carboxamide], the inhibition constant Ki in experiment [1] (GR BIND Ki) was 2.2 nM. The Emax was 21.6% in experiment [2], 56.9% in experiment [3] (setting [4]) and more than 5% in experiment [3] (setting [5]). For the same compound, the EC50 is 366 nM in experiment [2] and 293 nM in experiment [3] (Table 1). Besides, the “GITAR Greater than by GRAMMER % SEP” value in experiment [3] (Table 1) is recorded as 35.3%.

With “(4αR,5S)-N,N-dibutyl-1-(4-fluorophenyl)- 4α-methyl-1,4,4α,5,6,7- hexahydrocyclopenta[f]indazole-5- carboxamide [Compound 9]”, in experiment [1] (read-out: GR BIND Ki), the Ki worked out at 1 nM. Moreover, in experiment [2], the “Transactivation A549 Cells GRAMMER Emax” value stood at 38.5% and the EC50 was 360 nM. For the same compound, in experiment [3] (Table 1), the “GITAR Greater than by GRAMMER % SEP” value is 15.9% and the EC50 stood at 497 nM. The “Transrepression U937 Cells GITAR Emax” value in experiment [3] (setting [6]) came out at 54.4%.

As to `CCCCN(CC(O)C(F)(F)F)C(=O)[C@H]1CCC2=Cc3c(cnn3-c3ccccc3)C[C@@]21C` (stereo partly drawn) [Compound 79, (4αR,5S)-N-butyl-4α-methyl-1-phenyl-N-(3,3,3-trifluoro-2-hydroxypropyl)-1,4,4α,5,6,7-hexahydrocyclopenta[f]indazole-5-carboxamide], the inhibition constant (Ki) in experiment [1] (GR BIND Ki) came to 3.8 nM. Moreover, the figures for the Emax in experiment [2], in experiment [3] (setting [4]) and in experiment [3] (setting [5]) were 70.7%, 88.3% and more than 5%, respectively. For the same compound, the EC50 was 180 nM in experiment [2] and 163 nM in experiment [3] (Table 1). For the same compound, in experiment [3] (Table 1), the “GITAR Greater than by GRAMMER % SEP” value worked out at 17.6%.

Regarding `CCCN(CC(O)C(F)(F)F)C(=O)[C@H]1CCC2=Cc3c(cnn3-c3ccccc3)C[C@@]21C` (stereo partly drawn) [Compound 78, (4αR,5S)-4α-methyl-1-phenyl-N-propyl-N-(3,3,3-trifluoro-2-hydroxypropyl)-1,4,4α,5,6,7-hexahydrocyclopenta[f]indazole-5-carboxamide], the Ki in experiment [1] (GR BIND Ki) came out at 2.7 nM. Besides, the Emax is 65% in experiment [2], 86% in experiment [3] (setting [4]) and more than 5% in experiment [3] (setting [5]). Besides, the EC50 in experiment [2] amounted to 165 nM; in experiment [3] (Table 1), 179 nM. Moreover, in experiment [3] (Table 1), the “GITAR Greater than by GRAMMER % SEP” value is 21.0%.

Take `C[C@]12Cc3cnn(-c4ccc(F)cc4)c3C=C1CC[C@@H]2C(=O)N(CCO)Cc1cc(F)cc(F)c1` [Compound 32, (4αR,5S)-N-(3,5-difluorobenzyl)-1-(4-fluorophenyl)-N-(2-hydroxyethyl)-4α-methyl-1,4,4α,5,6,7-hexahydrocyclopenta[f]indazole-5-carboxamide]: in experiment [1] (GR BIND Ki), the inhibition constant Ki worked out at 11.1 nM. The Emax is 17.1% in experiment [2], 64.3% in experiment [3] (setting [4]) and more than 5% in experiment [3] (setting [5]). Moreover, the EC50 in experiment [2] turned out to be 872 nM; in experiment [3] (Table 1), 1030 nM. Also, the “GITAR Greater than by GRAMMER % SEP” value in experiment [3] (Table 1) is 47.1%.

In experiment [1] (GR BIND Ki), `CCCCN(CC(C)O)C(=O)[C@H]1CCC2=Cc3c(cnn3-c3ccc(F)cc3)C[C@@]21C` (stereo partly drawn) [Compound 40, (4αR,5S)-N-butyl-1-(4-fluorophenyl)-N-(2-hydroxypropyl)-4α-methyl-1,4,4α,5,6,7-hexahydrocyclopenta[f]indazole-5-carboxamide] showed an inhibition constant (Ki) of 5.1 nM. Further, the Emax was 66.4% in experiment [2], 86.8% in experiment [3] (setting [4]) and more than 5% in experiment [3] (setting [5]). The EC50 in experiment [2] amounted to 108 nM; in experiment [3] (Table 1), 141 nM. Moreover, in experiment [3] (Table 1), the “GITAR Greater than by GRAMMER % SEP” value stood at 20.4%.

For `CCN(CCC(F)(F)F)C(=O)[C@H]1CCC2=Cc3c(cnn3-c3ccc(F)cc3)C[C@@]21C` [Compound 91, (4αR,5S)-N-ethyl-1-(4-fluorophenyl)-4α-methyl-N-(3,3,3-trifluoropropyl)-1,4,4α,5,6,7-hexahydrocyclopenta[f]indazole-5-carboxamide], affinity in experiment [1] (GR BIND Ki) was put at a Ki of 4.5 nM. The Emax in experiment [2] was 44.5%; in experiment [3] (setting [4]) it was 75.1%; in experiment [3] (setting [5]) it was more than 5%. Further, the EC50 turned out to be 312 nM in experiment [2] and 333 nM in experiment [3] (Table 1). Also, the “GITAR Greater than by GRAMMER % SEP” value in experiment [3] (Table 1) was 30.6%.
